Reference: article PMC8558150 (Acta Pharmaceutica Sinica. B, 2021)
Read-outs that look alike come from different tables or passages of the source. Peptide text beside a SMILES is read from it.

How the values were obtained:
[1] = test system: SARS-CoV-2 (isolate USA-WA1/2020); assay: Antiviral immunofluorescence assay in Calu-3 cells; assay type: cell-based; settings: read-out: Antiviral EC50 in Calu-3 cells
cathepsin L = settings: read-out: cathepsin L IC50; cited from earlier work
SARS CoV-2 M^pro [2] = biological target: T1, SARS CoV-2 M^pro (Severe acute respiratory syndrome coronavirus 2, UniProt P0DTD1); assay type: cell-based
SARS CoV-2 M^pro [3] = biological target: T1, SARS CoV-2 M^pro; assay type: biochemical
SARS-CoV M^pro = settings: read-out: SARS-CoV M^pro IC50; cited from earlier work
SARS-CoV-2 M^pro = settings: cited from earlier work; for IC50: read-out: FRET IC50
SARS CoV-2 M^pro [4] = biological target: T1, SARS CoV-2 M^pro; settings: cited from earlier work
SARS-CoV-2 = settings: read-out: EC50, secondary viral yield reduction assay; Vero E6 cells; cited from earlier work
SARS CoV-2 M^pro [5] = biological target: T1, SARS CoV-2 M^pro; assay: Thermal shift assay; assay type: binding

Compound | result in FlipGFP assay (in words) (SARS CoV-2 M^pro [2]) | result in Protease-Glo luciferase assay (in words) (SARS CoV-2 M^pro [3]) | further results
CCCC(NC(=O)C(CC(C)C)NC(=O)OCc1ccccc1)C(=O)C(=O)NCc1ccccn1 (centres unmarked) [calpain inhibitor XII] | – | – | EC50 [1]: 14800 nM; IC50 (cathepsin L): 1.62 nM
CCC(C)SSc1ncc[nH]1 (centres unmarked) [PX-12] | no inhibitory activity | no inhibitory activity | –
CC(C)c1nc(CN(C)C(=O)N[C@@H](CCN2CCOCC2)C(=O)N[C@H](CC[C@H](Cc2ccccc2)NC(=O)OCc2cncs2)Cc2ccccc2)cs1 [cobicistat] | not conclusive | – | –
Cc1cccc(C)c1OCC(=O)N[C@@H](Cc1ccccc1)[C@@H](O)C[C@H](Cc1ccccc1)NC(=O)[C@H](C(C)C)N1CCCNC1=O [lopinavir] | not conclusive | not active | IC50 (SARS-CoV M^pro): 50000 nM
CC(C)c1nc(CN(C)C(=O)N[C@H](C(=O)N[C@@H](Cc2ccccc2)C[C@H](O)[C@H](Cc2ccccc2)NC(=O)OCc2cncs2)C(C)C)cs1 [ritonavir] | not active | not active | –
CCCCCCNC(=O)n1cc(F)c(=O)[nH]c1=O [carmofur] | no inhibitory activity | no inhibitory activity | –
CCN(CC)C(=S)SSC(=S)N(CC)CC [disulfiram] | no inhibition | no inhibition | –
CCN(CC)CCCC(C)Nc1ccnc2cc(Cl)ccc12 (centres unmarked) [chloroquine] | – | – | Ki (SARS-CoV-2 M^pro): 560 ± 120 nM
CCC[C@H](NC(=O)[C@@H]1[C@H]2CCC[C@H]2CN1C(=O)[C@@H](NC(=O)[C@@H](NC(=O)c1cnccn1)C1CCCCC1)C(C)(C)C)C(=O)C(=O)NC1CC1 [telaprevir] | – | – | inhibition in FRET assay (SARS CoV-2 M^pro [4]; at 20 μmol/L): 31%
O=c1c2ccccc2[se]n1-c1ccccc1 [ebselen] | no inhibition | no inhibition | M^pro inhibition in FRET assay in the presence of DTT or GSH (in words) (SARS CoV-2 M^pro [4]): completely lost the M^pro inhibition
O=c1cc(-c2ccccc2)oc2cc(O)c(O)c(O)c12 [baicalein] | no inhibition | no inhibition | –
Cc1c(O)cccc1C(=O)N[C@@H](CSc1ccccc1)[C@H](O)CN1C[C@H]2CCCC[C@H]2C[C@H]1C(=O)NC(C)(C)C [nelfinavir] | not conclusive | – | –
CC(C)=CC[C@@H](O)C1=CC(=O)c2c(O)ccc(O)c2C1=O [shikonin] | no inhibition | no inhibition | M^pro inhibition in FRET assay in the presence of DTT or GSH (in words) (SARS CoV-2 M^pro [4]): no inhibition
CC(C)(C)NC(=O)N[C@H](C(=O)N1C[C@H]2[C@@H]([C@H]1C(=O)NC(CC1CCC1)C(=O)C(N)=O)C2(C)C)C(C)(C)C (some centres unmarked) [boceprevir] | – | – | EC50 (SARS-CoV-2): 1950 nM
O=c1sn(-c2cccc3ccccc23)c(=O)n1Cc1ccccc1 [tideglusib] | no inhibitory activity | no inhibitory activity | –
CN(C)[C@@H]1C(O)=C(C(N)=O)C(=O)[C@@]2(O)C(O)=C3C(=O)c4c(O)cccc4[C@@](C)(O)[C@H]3[C@H](O)[C@@H]12 [oxytetracycline] | – | – | Ki (SARS-CoV-2 M^pro): 990 ± 60 nM
COC(=O)N[C@H](C(=O)N[C@@H](Cc1ccccc1)[C@@H](O)CN(Cc1ccc(-c2ccccn2)cc1)NC(=O)[C@@H](NC(=O)OC)C(C)(C)C)C(C)(C)C [atazanavir] | not conclusive | – | –
COC(=O)C1=C(C)NC(C)=C(C(=O)OCCN2CCN(C(c3ccccc3)c3ccccc3)CC2)C1c1cccc([N+](=O)[O-])c1 (centres unmarked) [manidipine] | no activity | no activity | binding to M^pro in thermal shift assay (in words) (SARS CoV-2 M^pro [5]): did not show binding; IC50 (SARS-CoV-2 M^pro; in the presence of 0.05% Tween-20): > 100000 nM
CSCC[C@@H](C=O)NC(=O)[C@H](CC(C)C)NC(=O)[C@H](CC(C)C)NC(C)=O [calpain inhibitor II] (Ac-Leu-Leu-Met-aldehyde) | – | – | EC50 [1]: 30300 nM; IC50 (cathepsin L): 0.41 nM
CCOc1nc2cccc(C(=O)O)c2n1Cc1ccc(-c2ccccc2-c2nnn[nH]2)cc1 [candesartan] | – | – | Ki (SARS-CoV-2 M^pro): 180 ± 20 nM; IC50 (SARS-CoV-2 M^pro): 2800 ± 300 nM
